Target: Replicase polyprotein 1ab (Severe acute respiratory syndrome coronavirus 2) (UniProt P0DTD1)
Description: Functional biochemical assay to identify treatments for viral infectious disease that targets SARS-COV-2 nsp3 macrodomain, whereby the mechanism of action displaces an ADP-Ribose modified peptide from the binding site. Utilizing a time-resolved fluorescence method to measure binding by reading the emitted fluorescence intensity in two wavelengths.

Cn1cnc(C(=O)N(CCC(=O)N2CCNCC2)Cc2cccc(Cl)c2)n1 gave an inhibition (Concentration 49.75 uM, Number of replicates 2.0, Standard deviation 2.331 %) of -1.44% and an inhibition (Concentration 99.5 uM, Number of replicates 2.0, Standard deviation 4.384 %) of -0.25%.
Molecule CC1(C)CN(C(=O)c2ccc(NC(=O)Nc3ccccc3)cc2)C[C@@]1(F)C(=O)O has an inhibition (Concentration 49.75 uM, Number of replicates 2.0, Standard deviation 0.273 %) of -2.57% and an inhibition (Concentration 99.5 uM, Number of replicates 2.0, Standard deviation 1.041 %) of -5.19%.
For CSc1ccccc1NC(=O)c1ncnc2[nH]ccc12, the inhibition (Concentration 50.0 uM, Number of replicates 2.0, Standard deviation 3.62 %) was -5.8%.
In the case of O=C(c1ccccc1)N1CCC(c2ccn3ncc(C(=O)N4CCc5nc[nH]c5C4)c3c2)CC1, the inhibition (Concentration 49.75 uM, Number of replicates 2.0, Standard deviation 2.532 %) was 11.2% and the inhibition (Concentration 99.5 uM, Number of replicates 2.0, Standard deviation 2.098 %) was 20.3%.
With O=C(OCc1ncccc1Cl)c1ncnc2[nH]ccc12 the inhibition (Concentration 50.0 uM, Number of replicates 2.0, Standard deviation 2.408 %) was 5.06%.
Work on O=C1CCC[C@@H](C(=O)N(CCC(=O)N2CCNCC2)Cc2cccc(Cl)c2)N1 yielded an inhibition (Concentration 49.75 uM, Number of replicates 2.0, Standard deviation 3.727 %) of 2.42% and an inhibition (Concentration 99.5 uM, Number of replicates 2.0, Standard deviation 3.7 %) of -3.31%.
O=C(Nc1ccccc1)Nc1ccc(C(=O)Nc2cnnc(Cl)c2)cc1 gave an inhibition (Concentration 49.75 uM, Number of replicates 2.0, Standard deviation 1.096 %) of -1.72% and an inhibition (Concentration 99.5 uM, Number of replicates 2.0, Standard deviation 2.694 %) of -0.19%.
Cc1cnc(C(=O)N(CCC(=O)N2CCNCC2)Cc2cccc(Cl)c2)nc1 was tested, and the inhibition (Concentration 49.75 uM, Number of replicates 2.0, Standard deviation 2.063 %) was -1.49% and the inhibition (Concentration 99.5 uM, Number of replicates 2.0, Standard deviation 9.956 %) was 6.47%.
In the case of Cc1nc(NC(=O)c2nccc3ccncc23)c2cc[nH]c2n1, the inhibition (Concentration 50.0 uM, Number of replicates 2.0, Standard deviation 2.951 %) was -5.83% and the inhibition (Concentration 100.0 uM, Number of replicates 2.0, Standard deviation 4.025 %) was 2.61%.
For Cc1ncc(NCc2cc3n(n2)CCOC3)cc1C(N)=O, the inhibition (Concentration 50.0 uM, Number of replicates 2.0, Standard deviation 4.482 %) was 0.46%.
CSc1cccc(NC(=O)c2ncnc3[nH]ccc23)c1 showed an inhibition (Concentration 50.0 uM, Number of replicates 2.0, Standard deviation 4.41 %) of -4.67%.
Cc1cc(C(F)(F)F)nn1CCNc1ncnc2[nH]ccc12 gave an inhibition (Concentration 50.0 uM, Number of replicates 2.0, Standard deviation 3.563 %) of -3.04%, an inhibition (Concentration 50.0 uM, Number of replicates 2.0, Standard deviation 6.31 %) of 4.6% and an inhibition (Concentration 100.0 uM, Number of replicates 2.0, Standard deviation 1.334 %) of -2.21%.
For O=C(OCC(Br)=C1CCOCC1)c1ncnc2[nH]ccc12, the inhibition (Concentration 50.0 uM, Number of replicates 2.0, Standard deviation 2.217 %) was -5.36%.
O=C(Cc1ccc(F)cc1)Nc1ccc2[nH]ncc2c1 was tested, and the inhibition (Concentration 50.0 uM, Number of replicates 2.0, Standard deviation 1.625 %) was 1.14%.
Cc1nc(C(=O)N2CCC(c3ccn4ncc(C(=O)N5CCCCC5)c4c3)CC2)c(C)[nH]1 gave an inhibition (Concentration 49.75 uM, Number of replicates 2.0, Standard deviation 0.064 %) of 16.8% and an inhibition (Concentration 99.5 uM, Number of replicates 2.0, Standard deviation 4.92 %) of 27.5%.
With O=C(c1ccccc1)N1CCC(c2ccn3ncc(C(=O)N4CCn5ncnc5C4)c3c2)CC1 the inhibition (Concentration 49.75 uM, Number of replicates 2.0, Standard deviation 0.529 %) was -3.77% and the inhibition (Concentration 99.5 uM, Number of replicates 2.0, Standard deviation 3.194 %) was -3.52%.
Cc1ccc(-c2n[nH]cc2CNc2cnc3[nH]ncc3c2)o1 gave an inhibition (Concentration 50.0 uM, Number of replicates 2.0, Standard deviation 33.024 %) of 7.23%.
In the case of C[C@@H](CO)Nc1ncnc2[nH]c(C(=O)OC(C)(C)C)cc12, the inhibition (Concentration 50.0 uM, Number of replicates 2.0, Standard deviation 12.843 %) was 10.7%.
With COc1cccc2cc(CNc3cnc4[nH]ncc4c3)oc12 the inhibition (Concentration 50.0 uM, Number of replicates 2.0, Standard deviation 5.215 %) was -4.29%.
In the case of CC(C)[C@@H](Nc1ncnc2[nH]ccc12)c1nncn1C, the inhibition (Concentration 49.75 uM, Number of replicates 2.0, Standard deviation 0.565 %) was 4.59% and the inhibition (Concentration 99.5 uM, Number of replicates 2.0, Standard deviation 7.858 %) was 10.8%.
Molecule CCC[C@@](C)(NC(=O)c1ncnc2[nH]ccc12)C(=O)OC has an inhibition (Concentration 50.0 uM, Number of replicates 2.0, Standard deviation 3.705 %) of -6.62%.
NCC(F)(F)CNC(=O)c1ccc(NC(=O)Nc2ccccc2)cc1 gave an inhibition (Concentration 49.75 uM, Number of replicates 2.0, Standard deviation 4.8 %) of -0.965% and an inhibition (Concentration 99.5 uM, Number of replicates 2.0, Standard deviation 1.089 %) of -1.17%.
Work on Cc1[nH]c2ncnc(NC(=O)c3ccncc3Cl)c2c1C yielded an inhibition (Concentration 50.0 uM, Number of replicates 2.0, Standard deviation 1.372 %) of 69.6% and an inhibition (Concentration 100.0 uM, Number of replicates 2.0, Standard deviation 0.621 %) of 85.6%.
O=C(NC[C@@H]1CCCCN1)c1cnn2ccc(C3CCN(C(=O)c4ccccc4)CC3)cc12 was tested, and the inhibition (Concentration 49.75 uM, Number of replicates 2.0, Standard deviation 3.98 %) was -5.92% and the inhibition (Concentration 99.5 uM, Number of replicates 2.0, Standard deviation 0.917 %) was -2.57%.
FC(F)(F)Oc1ccccc1-c1ncnc2[nH]ccc12 showed an inhibition (Concentration 50.0 uM, Number of replicates 2.0, Standard deviation 5.274 %) of -3.37% and an inhibition (Concentration 100.0 uM, Number of replicates 2.0, Standard deviation 3.913 %) of 2.12%.
Work on Cc1cnc(CCNc2ncnc3[nH]ncc23)c(C)c1 yielded an inhibition (Concentration 50.0 uM, Number of replicates 2.0, Standard deviation 4.479 %) of 4.34%.
CCn1cc(CNC(=O)c2ccc(NC(=O)Nc3ccccc3)cc2)cn1 was tested, and the inhibition (Concentration 49.75 uM, Number of replicates 2.0, Standard deviation 1.767 %) was -1.76% and the inhibition (Concentration 99.5 uM, Number of replicates 2.0, Standard deviation 3.239 %) was 3.8%.
Work on C[C@@H](Nc1ncnc2[nH]ccc12)c1cnn(CC2CCC2)c1 yielded an inhibition (Concentration 49.75 uM, Number of replicates 2.0, Standard deviation 1.153 %) of -0.451% and an inhibition (Concentration 99.5 uM, Number of replicates 2.0, Standard deviation 1.366 %) of 4.9%.
In the case of O=C(Nc1cnc2[nH]ncc2c1)C1CCN(c2ccc3nncn3n2)CC1, the inhibition (Concentration 50.0 uM, Number of replicates 2.0, Standard deviation 15.88 %) was 17%.
In the case of O=C(c1c[nH]c(=O)cn1)N1CCC(c2ccn3ncc(C(=O)N4CCCCC4)c3c2)CC1, the inhibition (Concentration 99.5 uM, Number of replicates 2.0, Standard deviation 1.433 %) was 45.8%.
Work on CC(C)NC(=O)[C@@H]1CCCN(c2ncnc3[nH]ccc23)C1 yielded an inhibition (Concentration 50.0 uM, Number of replicates 2.0, Standard deviation 0.005 %) of 1.78%.
For Cc1ccc(C(=O)N(CCC(=O)N2CCNCC2)Cc2cccc(Cl)c2)[nH]1, the inhibition (Concentration 49.75 uM, Number of replicates 2.0, Standard deviation 5.038 %) was -5.9% and the inhibition (Concentration 99.5 uM, Number of replicates 2.0, Standard deviation 2.609 %) was -3.94%.
With Cc1cc(NCc2cnc3c(c2)NC(=O)CO3)cnc1C the inhibition (Concentration 50.0 uM, Number of replicates 2.0, Standard deviation 8.489 %) was 4.53%.
CN(C)[C@@H]1CCCN(C(=O)c2cnc3c(c2)c(=O)[nH]c(=O)n3C)CC1 gave an inhibition (Concentration 50.0 uM, Number of replicates 2.0, Standard deviation 1.745 %) of -8.97%.
For O=S1(=O)CCC[C@@H](CNc2ncnc3n[nH]cc23)C1, the inhibition (Concentration 50.0 uM, Number of replicates 2.0, Standard deviation 5.989 %) was 4.59%.
O=C(NCc1nc2cccnc2[nH]1)c1cnc2nc[nH]c(=O)c2c1 gave an inhibition (Concentration 50.0 uM, Number of replicates 2.0, Standard deviation 1.79 %) of -1.99% and an inhibition (Concentration 100.0 uM, Number of replicates 2.0, Standard deviation 3.352 %) of 7.03%.
For c1cc(-c2nnc(Sc3ncnc4[nH]ccc34)[nH]2)ccn1, the inhibition (Concentration 50.0 uM, Number of replicates 2.0, Standard deviation 4.573 %) was 10.7%, the inhibition (Concentration 50.0 uM, Number of replicates 2.0, Standard deviation 8.715 %) was 5.47% and the inhibition (Concentration 100.0 uM, Number of replicates 2.0, Standard deviation 31.914 %) was 3.32%.
For c1ccc2sc(CNc3ncnc4[nH]ccc34)nc2c1, the inhibition (Concentration 50.0 uM, Number of replicates 2.0, Standard deviation 5.906 %) was -0.671%.
Work on O=C(c1c[nH]nn1)N1CCC(c2ccn3ncc(C(=O)N4CCCCC4)c3c2)CC1 yielded an inhibition (Concentration 49.75 uM, Number of replicates 2.0, Standard deviation 0.286 %) of 14.7% and an inhibition (Concentration 99.5 uM, Number of replicates 2.0, Standard deviation 4.61 %) of 25.6%.
O=C(Nc1ccccc1)Nc1ccc(C(=O)N2CCOCC23CCC3)cc1 was tested, and the inhibition (Concentration 49.75 uM, Number of replicates 2.0, Standard deviation 0.885 %) was -5.18% and the inhibition (Concentration 99.5 uM, Number of replicates 2.0, Standard deviation 3.072 %) was -3.18%.
In the case of Cc1cc(NCc2csc(C)n2)ncn1, the inhibition (Concentration 50.0 uM, Number of replicates 2.0, Standard deviation 0.576 %) was -4.64%.
FC(F)(F)c1nc(NC[C@H]2CCCO2)c2nc[nH]c2n1 gave an inhibition (Concentration 50.0 uM, Number of replicates 2.0, Standard deviation 2.867 %) of 2.5%.
Molecule Cn1c(C(=O)NCCNC(=O)c2ccco2)cc2c(=O)n3ccccc3nc21 has an inhibition (Concentration 50.0 uM, Number of replicates 2.0, Standard deviation 1.378 %) of -4.47%.
Molecule c1coc(CNc2ncnc3[nH]cnc23)c1 has an inhibition (Concentration 50.0 uM, Number of replicates 2.0, Standard deviation 0.16 %) of 2.63%.
CO[C@@]1(C(=O)O)CCN(C(=O)c2ncnc3[nH]ccc23)C1 gave an inhibition (Concentration 50.0 uM, Number of replicates 2.0, Standard deviation 2.289 %) of -4.18% and an inhibition (Concentration 100.0 uM, Number of replicates 2.0, Standard deviation 3.346 %) of -3.71%.
Work on O=C(c1cn2ncccc2n1)N1CCC(c2ccn3ncc(C(=O)N4CCCCC4)c3c2)CC1 yielded an inhibition (Concentration 49.75 uM, Number of replicates 2.0, Standard deviation 0.525 %) of 30.7% and an inhibition (Concentration 99.5 uM, Number of replicates 2.0, Standard deviation 6.296 %) of 53.8%.
For O=C(Cn1c(=O)[nH]c2ccccc21)Nc1cnc2[nH]ncc2c1, the inhibition (Concentration 50.0 uM, Number of replicates 2.0, Standard deviation 2.142 %) was 1.78%.
COC(=O)[C@]1(F)CCN(C(=O)c2ccc(NC(=O)Nc3ccccc3)cc2)C1 was tested, and the inhibition (Concentration 49.75 uM, Number of replicates 2.0, Standard deviation 1.195 %) was -0.893% and the inhibition (Concentration 99.5 uM, Number of replicates 2.0, Standard deviation 2.11 %) was 0.834%.
CC1OCCC1(O)CNC(=O)c1ncnc2[nH]ccc12 (stereo unspecified) gave an inhibition (Concentration 50.0 uM, Number of replicates 2.0, Standard deviation 4.016 %) of 1.86%.
For COc1ccccc1CN(C[C@@H]1CCCO1)c1ncnc2[nH]ccc12, the inhibition (Concentration 50.0 uM, Number of replicates 2.0, Standard deviation 1.448 %) was 4.74%.
For CN(C(=O)c1ccc(NC(=O)Nc2ccccc2)cc1)[C@@H]1CN2CCC1CC2, the inhibition (Concentration 49.75 uM, Number of replicates 2.0, Standard deviation 0.826 %) was -4.01% and the inhibition (Concentration 99.5 uM, Number of replicates 2.0, Standard deviation 1.597 %) was 2.77%.
O=C(c1cc(O)ncn1)N1CCC(c2ccn3ncc(C(=O)N4CCCCC4)c3c2)CC1 gave an inhibition (Concentration 49.75 uM, Number of replicates 2.0, Standard deviation 0.931 %) of 19.1% and an inhibition (Concentration 99.5 uM, Number of replicates 2.0, Standard deviation 1.95 %) of 30.9%.

— ChEMBL document CHEMBL5442379, “ASAP - SARS-CoV-2 nsp3 macrodomain single point” (2024)
